The source of these data is patent publication US9517988B2 (Sichuan Haisco Pharmaceutical Co., Ltd., priority 2013, dated 2016).

Each structure is given as a SMILES string. Where only a bound is given, the exact number is not on record here.

Data set [1] has as its system GABAA receptors. Conditions: CHO/GABAA; for EC50: enhancement of muscimol-induced GABAA receptor current, whole-cell patch-clamp.
Method: Various concentrations of test compounds and muscimol were added together to CHO/GABAA, and the current mediated by GABAA receptors was measured. Two measurements were performed for each concentration to obtain an average response current. The enhancement of the current mediated by GABAA receptors was calculated by the following equation: Enhancement (%)=100*(Test Compound−Control)/Control
The Control group is the peak current amplitude induced by muscimol, and the Test Compound group is the peak current amplitude co-induced by the test compounds and muscimol. The enhancement (%) was calculated for each concentration, and EC50 was calculated by normalization.
Data set [2] relates to Beagle dogs. The data set is described as follows: Haemodynamic effects in Beagle dogs. It counts as in vivo. Conditions: for Dose required to produce the same anesthetic effect: Beagle dogs, intravenous emulsion for injection. Here is the method: Data of various indicators such as electrocardiogram, blood pressure and body temperature of the animals were continuously collected from about 3.5 hours before administration until 6 hours after administration.

Data set [3] can be described thus: Righting reflex experiment on mice. Conditions: both, ICR, mouse, in vivo.
Data set [4] concerns ICR mice. The data set is described as follows: Righting reflex experiment on mice. To be noted: for ED50: Mus musculus, iv; for Anesthesia induction time / Anesthesia maintenance time / HD7: mice; for Anesthesia induction time / Anesthesia maintenance time: intravenous injection; for Anesthesia induction time: end of administration until loss of righting reflex; for Anesthesia maintenance time: loss until recovery of righting reflex; for HD7: dose required to cause a 7-min anesthesia; for TI: therapeutic index, LD50/ED50, mice.

Data set [5] can be described thus: Pharmacokinetic experiment on rats. In kind it is in vivo, SD rats. Conditions: male, Sprague-Dawley, rat, plasma; Intravenous Injection into Rats (1 mg/kg). Here is the method:
3 male SD rats, each weighing 180 to 240 g, were fasted overnight with water access. A 1 mL/kg solution of the compound was formulated with 10% DMA, 20% solutol HS-15 (30%, w/v) and 70% physiological saline. Blood was sampled before administration and 2 min, 4 min, 8 min, 12 min, 15 min, 30 min, 1 h, 1.5 h and 2 h after administration. Blood samples were centrifuged at 5500 rpm for 10 min, and plasma was collected and stored at −40° C. 10 μl rat plasma from each time point was added to a 200 μl acetonitrile solution containing an internal standard and mixed, followed by 1-min vortexing and 18-min centrifugation at 3700 rpm. Then 70 μl supernatant was mixed with 70 μl water, and 10 μl of the mixture was analyzed by LC-MS/MS. Major pharmacokinetic parameters were subjected to a non-compartment analysis with the software WinNonlin 6.3.

In data set [6] the test system is ICR mice. As to the kind of experiment: Righting reflex experiment on mice with prodrugs. In kind it is in vivo. The method, then:
After adapting to the laboratory environment, the SPF-grade ICR mice were fasted for 12 hours.

For data set [7] the following is noted: injection; cited from earlier work.
Data set [8] in a line: Efficacy experiment on rats with prodrugs. In kind it is in vivo. To be noted: both sexes, Sprague-Dawley, rat, in vivo, intravenous, SD rats. Here is the method:
(§1) This experiment selected SD rats, each weighing 180 to 200 g. The rats were randomized, with 10 animals per group, half male and half female. […] The time of administration, time of loss of the righting reflex, time of recovery of the righting reflex, and time of walking were recorded. Adverse effects shown by the rats after administration were also recorded.
(§2) Time of loss of the righting reflex: the righting reflex is lost; a rat made lying on its back can maintain the lying for a period of 60 s;
(§3) Time of recovery of the righting reflex: the righting reflex ability is restored; a rat made lying on its back rights in less than 2 s;
(§4) Time of walking: spontaneous forwarding moving occurs, and muscle tension of the limbs recovers.
(§5) Using GraphPad Prism 5, ED50 and LD50 values were calculated from a non-linear fitting of number of anesthetic or dead animals resulting from various doses.

For data set [9], the system named is SD rats. The data set is described as follows: Efficacy experiment on rats with prodrugs. In kind it is in vivo. Here is the method: as §1, §2, §3, §4, §5
Data set [10] is described as follows: Pharmacokinetic analysis with prodrugs in rats. It counts as in vivo, SD rats. Conditions: male, Sprague-Dawley, rat, plasma, iv, 10 mg/kg. The method, then:
3 male SD rats, each weighing 180 to 240 g, were fasted overnight with water access. After a single intravenous administration of a prodrug at 10 mg/kg to rats, the plasma concentrations of the prodrug and the active form were each measured by LC-MS/MS, and the pharmacokinetic parameters were analyzed.

[11] abbreviates: mice, intravenous injection, prodrugs.

Take `CC(C)c1cccc([C@H](C)C2CC2)c1O` [Compound 16, 2-[(1R)-1-cyclopropylethyl]-6-isopropyl-phenol]: in data set [1] (patch clamp), the “Activity compared with propofol” value was “lower ED50” and the “Effect on the ion channels of GABAA receptors” value was “activating effect”. For the same compound, the EC50 in [1] is 1.1 µM. In [2], the “Dose required to produce the same anesthetic effect” value turned out to be 2 mg/kg. In data set [2] (conscious Beagle dogs, Compound 16 2 mg/kg vs propofol 10 mg/kg), the “Effect on the heart rate and blood pressure” value was “smaller than that of propofol”. Moreover, in data set [3] (intravenous), the MTD came to 6 mg/kg. Further, in [3] (iv), the LD50 was determined as 9.9 mg/kg. In data set [4], it took a dose of 1.5 mg/kg to reach the 50% effect level (ED50), the Anesthesia induction time was below 15.0 s, the Anesthesia maintenance time is listed as 631.9 s and the HD7 is listed as 3.5 mg/kg. In data set [4], this compound registered a TI of 6.7. Besides, the SI in [4] (safety index, LD5/ED95, mice) was determined as 4.1. In data set [5], this compound gave an AUC(0-t) of 168 ng·h/mL, a clearance of 105 mL/min/kg and a half-life of 30 min.
With `CC(C)c1cccc(C(C)C)c1O` [Propofol, reference compound], the “Effect on the ion channels of GABAA receptors” value in data set [1] (patch clamp) was “activating effect”. Further, the EC50 in data set [1] worked out at 5.3 µM. Also, the “Dose required to produce the same anesthetic effect” value in [2] came to 10 mg/kg. The ED50 is 11.7 mg/kg in data set [4]; 11.7 mg/kg in [6] (Mus musculus, mice, intravenous injection, prodrugs formulated with physiological saline, read-out: ED50); 5.7 mg/kg in [9] (Rattus norvegicus, SD rats, tail vein, non-linear fitting). For the same compound, the Anesthesia induction time in data set [4] is given as below 15.0 s; in data set [6] (setting [11]), below 15.0 s; in data set [9] (SD rats, tail vein), 0.0 s. Moreover, the Anesthesia maintenance time in data set [4] worked out at 652.5 s; in [6] (setting [11]), 652.5 s; in data set [9] (SD rats, tail vein), 652.0 s. The compound further had an HD7 in [4] of 14.0 mg/kg. Moreover, the TI in data set [4] is reported as 2.7; in [6] (therapeutic index, LD50/ED50, mice, prodrugs), 2.7; in data set [9] (therapeutic index, LD50/ED50, rats), 3.4. In addition, the MTD in data set [6] (mice, prodrugs) is 20.0 mg/kg; in data set [8] it was 12.5 mg/kg. The exposure AUC(0-t) in data set [5] and in data set [10] was 81.9 ng·h/mL throughout. For the same compound, the clearance in data set [5] and in data set [10] was 204 mL/min/kg each time. Besides, the half-life in [5] and in [10] was 42 min throughout. For the same compound, the “Patients on injections feeling certain pain or discomfort” value in data set [7] is on record as “approximately 70%”. In addition, the LD50 in data set [8] (tail vein, non-linear fitting) is 19.1 mg/kg.
